Our source for the IC50 and Ki values is BindingDB's records for PubMed 33764065 (Niddk, 2021).

Assay [1] in a line: Inhibition of human non pancreatic secretory phospholipase A2 incubated for 30 mins by plate reader analysis.
Assay [2] can be described thus: Binding affinity to bovine brain membrane BzR assessed as inhibition constant.

SMILES strings stand for the structures.

The IC50 is the concentration needed to halve the response being measured. A lower IC50 goes with higher potency. In the case of `COc1ccc2c(c1)c(CC(=O)O)c(C)n2Cc1ccccc1` [1-BENZYL-5-METHOXY-2-METHYL-1H-INDOL-3-YL)-ACETIC ACID], in assay [1], the concentration for half-maximal inhibition (IC50) is 13.6 µM.

By Ki is commonly meant the equilibrium dissociation constant of an inhibitor or competing ligand from its target. Take `O=C(NCc1ccccc1)C(=O)c1c[nH]c2ccc([N+](=O)[O-])cc12` [N-benzyl-2-(5-nitro-1H-indol-3-yl)-2-oxoacetamide]: in assay [2], the Ki was found to be 0.117 µM.
